From ChEMBL document CHEMBL3507680, “University of Dundee, Gates Library screen for HepG2 cell viability”

Test: Human HepG2 cell viability assay in 384 well format
Format: toxicity, cell-based
Set-up: dose 125 nL, time 70.5 hour; concentration not given beside the values
Conditions: HepG2 cells, read-out: Inhibition

Compound	cytotoxicity at 70.5 h [%]
CCC1=NN2C(=N)/C(=C\c3cccn3-c3ccc(Cl)cc3)C(=O)N=C2S1	9.55
Cc1nn(C(=O)c2cccnc2)c(C)c1C	27.4
COC(=O)[C@@H]1CN(C(=O)Nc2ccccc2)CCN1C(C)=O	-7
COc1ccccc1-c1nnc([C@H]2CCN(C(=O)C3CC3)C2)o1	11.5
FC(F)(F)c1ccc(-c2c[nH]c([C@@H]3COCCN3)n2)cc1	-16
COCC(=O)N1CCN2C(=O)OC[C@H]2C1	3.16
O=C1CO[C@H]2CN(Cc3ccc(F)c(F)c3)C[C@H]2N1	-12.7
O=C1CO[C@H]2CN(Cc3ccc4c(c3)OCO4)C[C@H]2N1	-7.08
c1ccc2c(Cc3nnc([C@H]4CCNC4)o3)c[nH]c2c1	-2.38
Fc1ccc(-c2noc([C@@H]3Cc4nc[nH]c4CN3)n2)cc1	-11.7
Cc1ccc(-c2noc([C@@H]3Cc4nc[nH]c4CN3)n2)cc1	-11.9
CCNC(=O)NC[C@H]1COCc2nc3cc(C)ccc3n21	-3.17
CCNC(=O)N1C[C@@H]2OCC(=O)N(C(C)C)[C@@H]2C1	-0.389
COc1ccc(-c2cc(C[C@@H]3C[C@H](N(C)C)C3(C)C)no2)cc1	5.02
Cc1nn(CCC#N)c(C)c1[C@@H]1C=C[C@@H](NCc2ccc(F)cc2)C1	-0.333
Cc1ccc(S(=O)(=O)Cc2noc([C@@H]3C[C@@H](O)CN3C(C)C)n2)cc1	-8.79
CC1=C[C@@H](CC#N)[C@H](C(C)C)C[C@H]1CC(=O)N1CCN(CCO)CC1	-8.18
COCC(=O)Nc1ccc(-c2noc([C@@H]3CCCN3C(C)C)n2)cn1	-2.85
COCc1cc(C[C@@H]2CC[C@H](O)[C@@H](CNCC(C)C)O2)no1	-0.483
O=C(Nc1ccccc1)[C@H]1O[C@H](CCN2CCCCC2)CC[C@@H]1O	-3.54
O=C1N(Cc2ccccn2)C[C@H]2CN(C3CCOCC3)CCN12	-3.19
CC(C)(O)c1cc(CC2(NCC3CCCCC3)COC2)no1	-16.3

Compound	cytotoxicity at 70.5 h [%]
CS(=O)(=O)NC[C@H]1OC[C@@H](NC2CCC(F)(F)CC2)[C@@H]1O	-5.87
O=C(NC[C@H]1OC[C@@H](NCc2ccccc2F)[C@@H]1O)Nc1ccccc1	-3.35
CN(C)C[C@H]1O[C@H](Cc2cc(-c3ccccn3)on2)CC[C@@H]1O	-4.76
COc1cccc(CN2CCN3C(=O)NC[C@H]3C2)n1	-7.27
Cc1ccc(CN2C[C@H](O)C[C@H]2c2nc(-c3ccc(F)cc3)no2)cc1	-7.37
c1cnc2c(c1)nc1n2[C@@H](CNC2CCOCC2)COC1	-4.98
CC(C)NC(=O)NC[C@H]1OC[C@@H](NCc2ccccc2F)[C@@H]1O	-4.73
Cc1cc2nc(CO[C@H]3CN(C4CCC4)C[C@H]3F)[nH]c2cc1C	-2.01
c1cn2c(n1)CO[C@@H](CNCc1ccc3c(c1)OCO3)C2	-4.1
CC(C)N[C@@H]1CO[C@H](CNC(=O)Nc2ccccc2)[C@H]1O	-2.59
CC(=O)N1C[C@@H](F)[C@@H](OCc2nc3ccccc3o2)C1	-3.68
COCCN1C[C@H]2CN(C(=O)c3ccc4c(c3)OCO4)CCN2C1=O	-3.46
COc1cc(OC)c2c(=O)oc(CC(O)CC(C)=O)cc2c1 (stereo not drawn)	9.76
CCc1noc(-c2cccc(OCC(=O)NC(C)C)c2)n1	-7.23
COCCNc1c(-c2ccc(C)cc2)c(=O)c1=O	-9.49
COCCCNc1c(-c2ccc(C)cc2)c(=O)c1=O	-6.65
CN(C)CCNc1c(-c2ccccc2)c(=O)c1=O	-1.53
COc1ccc(OC)c(NC(=O)c2c(C)cn(C)c2CC(=O)O)c1	-5.28
CN1CCN(c2ccc(NS(=O)(=O)c3ccc(Br)s3)cc2C(=O)O)CC1	24
O=C(CCn1nc(C(=O)Nc2ccccc2)ccc1=O)Nc1nccs1	1.25
Cc1ccc2nc(CSCC(=O)Nc3nnc(C(C)C)s3)cc(=O)n2c1	-6.09
Cc1ccc(-n2nc(C)c3c(C)cc(OCC(=O)NC(C)C)nc32)cc1	-1.77

Compound	cytotoxicity at 70.5 h [%]
Cc1ccn(CCC(=O)NCc2ccc(C)o2)n1	-1.65
Cc1nc(N2CCN(C)CC2)ncc1C(=O)N1CCN(C)CC1	-4.76
CCOCCCNC(=O)NCc1c(C)nn(C)c1C	22.3
Cn1nnc(NCc2ccccc2OCc2ccc(Cl)cc2)n1	29.2
CCN1C(=O)CCCC12CCCN(C(=O)c1sccc1C)C2 (stereo not drawn)	-9.33
CCN1C(=O)CCCC12CCCN(C(=O)c1occc1C)C2 (stereo not drawn)	-10.4
CCN1C(=O)CCCC12CCCN(C(=O)c1cc(C)oc1C)C2 (stereo not drawn)	-9.36
CC(=O)N1CCC2(C1)CN(C(=O)C1CCOC1)C2 (stereo not drawn)	-11.2
COCCNC(=O)c1ccc2ccc(N3CCN(CC4CC4)CC3)n2c1	24.5
CN1[C@H](CN2CCCC2)C[C@@H]2CN(C(=O)c3ccsc3)CC[C@@H]21	11.2
O=C(c1cscn1)N1CCC2(CCCN(CCOc3ccccc3)C2)C1 (stereo not drawn)	-19.6
Cc1ccc(CN2C[C@H]3C[C@H](C(=O)NCC4CC4)N(C)[C@H]3C2)o1	-12.6
Cc1ccc(C(=O)N2CCC3(CCC(C(=O)NCC4CC4)O3)CC2)o1 (stereo not drawn)	-12.5
CC[C@@H]1N(Cc2cc(OC)cc(OC)c2)CCC[C@]12CCC(=O)N2C	-16.6
CN(C)CC(=O)N1CCC2(CC1)CN(Cc1cccnc1)C(=O)CO2	17.2
COCCN1CCC2(CCN(C(=O)c3ccc(F)cc3)CC2)C1=O	18.4
O=C(NC1CC1)N1CC[C@@H](O)[C@@H]1Cc1ccccc1	0.741
NC(=O)N1CC[C@H](O)[C@@H]1Cc1ccccc1	-8.95
CN(C)CCN1C(=O)CCC12CCN(C(=O)CC1CC1)CC2	-6.33
COCCNC(=O)c1ccc2ccc(N(C)CC3CC3)n2c1	-5.92
COCC(=O)N1CCN(C)c2ncccc2C1	-0.482
CN(C)C(=O)N1CCN(C)c2ncccc2C1	-7.19

Compound	cytotoxicity at 70.5 h [%]
Cc1csc([C@H]2C[C@@H]3CCN(Cc4cnn(C)c4)C[C@H]3O2)n1	-7.09
O=C(NC[C@@]1(COc2cnccn2)C[C@@H](O)[C@@H](O)C1)C1CC1	15
O=C(c1ccccc1F)N1CC2(CCNCC2)c2cc(Cl)ccc21	-9.74
COC(=O)N1CC2(CCNCC2)c2cc(Cl)ccc21	-7.27
C[C@@H](N)C(=O)N1CC2(CCNCC2)c2cc(Cl)ccc21	0.763
Cc1ccc(CN2CCc3nnc(CN4CCCC4=O)n3CC2)o1	-3.79
CNC(=O)CN1CCCC12CCN(C(=O)c1cccc(F)c1)CC2	24.1
CC[C@@H]1N(Cc2ccc(F)cc2)CCC[C@]12CCC(=O)N2C	-9.15
COc1ccc(CN2CCC3(CC2)CC(CC(=O)NC(C)C)CO3)cc1 (stereo not drawn)	-14.4
CN(C)C(=O)N1CCC2(CCCN(CCOc3ccccc3)C2)C1 (stereo not drawn)	-14.6
Cn1cccc1C(=O)N1CCC2(CC1)CC(N1CCOCC1)C2	-12.5
CN(C)C(=O)CN1C(=O)CCC12CCN(Cc1cccs1)CC2	9.34
O=C(C1CCCO1)N1C[C@@H]2CCN(c3cnccn3)C[C@@H]2C1 (stereo partly drawn)	-9.71
O=C(c1cccc(F)c1)N1CCC2(CC1)CC(N1CCOCC1)C2	-14.8
CC[C@@H]1N(Cc2ccc(C)s2)CCC[C@]12CCC(=O)N2C	-11.2
CN(C)CCN1CCC2(CCN(C(=O)c3cccc(F)c3)CC2)C1=O	15.4
CC(=O)N1CCN(Cc2nccs2)CC2(CC(=O)N(C)C2)C1 (stereo not drawn)	-11.2
CC(=O)N1CCN(Cc2cccs2)CC2(CC(=O)N(C)C2)C1 (stereo not drawn)	-9.26
COc1cccc(CN2CCC3(CC2)CCN(C(=O)[C@@H]2CCCO2)C3)c1	-8.83
CCN1CCC2(CCN(c3ncccn3)CC2)C1=O	-8.88
O=C(CC1CC1)N1CCC2(CC1)CN(Cc1cccnc1)C(=O)CO2	-12.2
Cc1noc(C)c1CN1CCCC2(CCN(CC3CCCC3)C2)C1 (stereo not drawn)	-3.39

Compound	cytotoxicity at 70.5 h [%]
c1ccc(N2CCCC3(CCN(Cc4ccsc4)C3)C2)nc1 (stereo not drawn)	-7.47
Cc1cnc(N2CCC3(CCN(CC4CCCC4)C3=O)CC2)nc1	-11
O=C1N(CC2CCCC2)CCC12CCN(c1ncc(F)cn1)CC2	-7.22
CCN1CCOCC12CCN(C(=O)C1CCCC1)CC2	-0.25
C[C@@H]1C(=O)NC[C@H]2CN(Cc3ccc4c(c3)OCO4)C[C@H]21	-10.2
C[C@H]1C(=O)NC[C@H]2CN(CCc3ccccc3)C[C@H]21	-9.77
Cc1occc1C(=O)N1CCC2(CCCN(Cc3cccs3)C2)C1 (stereo not drawn)	0.121
COc1cccc(CC(=O)N2CCN(C)c3ncccc3C2)c1	1.87
COCC1CN(Cc2ccc(OC)cc2)Cc2nnn(CC3CC3)c21 (stereo not drawn)	-4.99
Cc1ccc(CN2C[C@@H]3C[C@H](C(=O)NCC4CC4)N(C)[C@@H]3C2)o1	10.1
CCc1ccc(CN2CC[C@H]3[C@H]2CC(=O)N3Cc2cccc(C)n2)o1	-7.64
CN(C)CCN1CCCC12CCN(C(=O)c1ccco1)CC2	-6.82
CNC(=O)[C@@H]1C[C@H]2CN(Cc3ccc(C)s3)C[C@H]2N1C(C)=O	-1.67
Cc1ccccc1C(=O)N1CCC2(CCCN2CCN(C)C)CC1	-9.86
Cc1cccc(CN2C(=O)CCC23CCNCC3)n1	-9.48
O=C(Cc1cccnc1)N1CCC2(CC1)CCN(C1CCOCC1)CC2	-5.53
CN(C)C(=O)COCc1cncc2c1CCN(Cc1ccccc1)C2	-3.3
O=C(Cc1cccnc1)N1CCC2(CC1)CCN(C1CCOC1)C2 (stereo not drawn)	8.42
Cn1ccnc1CN1CCC2(CC1)CN(c1ccccn1)CCO2	8.31
CN1CCN(Cc2ccncc2)C(=O)C12CCN(Cc1ccsc1)CC2	2.26
